Measurements: ChEMBL document CHEMBL3507680, “University of Dundee, Gates Library screen for HepG2 cell viability”

Test: Human HepG2 cell viability assay in 384 well format
Type: toxicity, cell-based
Design: dose 125 nL, time 70.5 hour; concentration not given beside the values
Conditions: HepG2 cells, read-out: Inhibition

Compound | cytotoxicity at 70.5 h
CN(C)C1CCCN(C(=O)NCc2ccccc2-n2cccn2)C1 (configuration not stated) | 10.5%
Cc1c(C(=O)N2CCCC(n3cccn3)C2)nnn1-c1ccccc1 (configuration not stated) | -2.31%
Cc1ccc(CNC(=O)CN2CCCCC2Cn2cncn2)s1 (configuration not stated) | -7.67%
CCc1noc(C(C)N2CCN(C)CC2)n1 (configuration not stated) | -7.05%
Cc1cnn(C2CCCN(C(=O)Cc3ccc(C#N)cc3)C2)c1 (configuration not stated) | -2.96%
Cc1cnn(CC2CCCN2CCCS(=O)(=O)N(C)C)c1 (configuration not stated) | 2.72%
CN(Cc1ccc2c(c1)OCO2)C(=O)Cn1cccnc1=O | 17.3%
NC(=O)C1CCN(C(=O)NCc2ccccc2-n2cccn2)CC1 | -4.82%
CC(=O)NC1CCCN(C(=O)Nc2cccnc2-n2cccn2)C1 (configuration not stated) | -6.08%
CN(C(=O)Cc1ccccc1Cl)C1CCN(c2ccccn2)CC1 | 2.75%
Cc1cnn(C2CCCN(C(=O)Cc3ccc4c(c3)CCO4)C2)c1 (configuration not stated) | 13.9%
CN(C(=O)Cc1ccccc1F)C1CCN(c2ccccn2)CC1 | -3.14%
Cc1nn(-c2ccccc2)cc1C(=O)N1CCCC(n2ccnc2)C1 (configuration not stated) | -0.753%
Cc1cc(C)n(CC2CCCN2C(=O)c2ccc3nnc(C)n3c2)n1 (configuration not stated) | -0.407%
Cn1cnc2c1CCN(CCCS(=O)(=O)c1ccccc1)C2 | 24.3%
CCN1CCC(CNC(=O)Nc2cc(C)on2)C1 (configuration not stated) | -4.44%
Cc1cc(C)cc(OCCN(C)C(=O)NC(C)c2nncn2C)c1 (configuration not stated) | 17.7%
COc1ccc(N2CCN(C(=O)NC(C)c3nncn3C)CC2)cc1 (configuration not stated) | -3.61%
CC(NC(=O)N1CCC(c2ccccc2)CC1)c1nncn1C (configuration not stated) | -3.28%
CCOc1ncccc1CNC(=O)NCCNC(=O)c1ccco1 | -4.58%
Cc1cnn(CC2CN(CCc3cccs3)CCO2)c1 (configuration not stated) | -2.69%
COc1cc(C(=O)N2CCCS2(=O)=O)ccc1OC(C)C | 21.8%
O=C(Cc1csc(-c2ccco2)n1)N1CCCC1Cn1cccn1 (configuration not stated) | -7.55%
CN(Cc1cccs1)C(=O)CN1CCOC(Cn2cncn2)C1 (configuration not stated) | 17.4%

Compound | cytotoxicity at 70.5 h
Cc1nc(C(=O)N2CCCC2c2noc(C)n2)c[nH]1 (configuration not stated) | -4.04%
Cn1cnc2c1CCN(CCS(=O)(=O)c1ccc(Cl)cc1)C2 | -5.54%
Cc1cc(CN(C)C(=O)c2ccc(OC(C)C)nc2)no1 | 20%
Cn1c(CN2CCCC(c3noc(C4CC4)n3)C2)cc(=O)n(C)c1=O (configuration not stated) | -11.3%
Cc1cc(OCC(=O)N2CCCC2c2noc(C)n2)no1 (configuration not stated) | -13.8%
CC(C)c1cc(NC(=O)CN2CCCC2c2noc(C(C)C)n2)on1 (configuration not stated) | -12%
Cc1cccc(C(=O)NCCCN2CCc3ccccc3C2)c1C | -7.53%
Cn1ncc(NCc2cccc(F)c2)c(Cl)c1=O | -13.3%
CC(Cn1cccn1)NC(=O)NCCc1cccs1 (configuration not stated) | -6.38%
Cc1ccccc1C(=O)NCCCN1CCc2ccccc2C1 | 19.4%
CNc1snc(C)c1C(=O)N1CCCC(n2cccn2)C1 (configuration not stated) | -15%
CNc1snc(C)c1C(=O)N1CCCC(n2ccnc2)C1 (configuration not stated) | -9.44%
Cc1cn2c(n1)CCC(NC(=O)c1cc[nH]n1)C2 (configuration not stated) | -4.85%
Cc1ccc(-c2noc(CN3CCc4nn(C)c(=O)cc4C3)n2)cc1 | -4.24%
Cn1nc2c(cc1=O)CN(Cc1nc(-c3cccnc3)no1)CC2 | -3.78%
CC(C)c1nc(C2CCCN2Cc2cc(=O)n(C)c(=O)n2C)no1 (configuration not stated) | -4.31%
Cc1cc(NC(=O)CN2CCCC2c2noc(C(C)C)n2)no1 (configuration not stated) | 14.1%
Cc1cc(NC(=O)CN2CCCC2c2noc(C3CC3)n2)n(C)n1 (configuration not stated) | -10.4%
COc1cccc(CN2CCCC(c3cc(C(N)=O)[nH]n3)C2)c1 (configuration not stated) | -12.6%
Cn1nc2c(cc1=O)CN(Cc1nc(-c3ccco3)no1)CC2 | -7.45%
CNc1snc(C)c1C(=O)N1CCCC(n2cc(C)cn2)C1 (configuration not stated) | -8.17%
COc1c(C2CCCN2Cc2noc(C)n2)c(C)nn1C (configuration not stated) | 44.7%
CCN(CCC1CCN(C(=O)NCc2nncn2CC)CC1)CC1CC1 | 15.6%
Cc1nn(C)c(N(C)C)c1CNCc1ccc(Cn2cncn2)cc1 | 22.4%

Compound | cytotoxicity at 70.5 h
CCC1CN(CC(=O)Nc2sccc2C#N)CCO1 (configuration not stated) | -8.24%
N#Cc1cn(C2CC2)c(=O)n(CC(O)c2ccccc2F)c1=O (configuration not stated) | -17%
COc1ccc(C(O)CNC(=O)Nc2cc(C)nn2C)cc1 (configuration not stated) | 25.3%
Cc1oc(C)c(C(=O)NCc2ccccc2S(=O)(=O)N(C)C)c1C | -2.12%
Cc1cc(C)n(CC(=O)N2CCC(NS(=O)(=O)c3ccccc3)CC2)n1 | -5.45%
Cc1cc(C)c(CNC(=O)C2CCCN(c3cnccn3)C2)c(=O)[nH]1 (configuration not stated) | -14.3%
COc1cc(CNCCc2cnn(C)c2)cc2c1OCCO2 | -12.1%
Cc1noc2ncc(C(=O)NCC3CCN(C(C)C)C3)cc12 (configuration not stated) | -4.09%
Cc1nc2cc(=O)[nH]n2c(C)c1CC(=O)Nc1ccc2ccccc2n1 | -6.2%
Cc1cnn(CC2CN(CC(=O)Nc3sccc3C#N)CCO2)c1 (configuration not stated) | -0.129%
Cn1cnnc1CNC(=O)Nc1cc(C(F)(F)F)c[nH]c1=O | -7.22%
Cc1ccccc1CNC(=O)Cc1c(C)nc2cc(=O)[nH]n2c1C | -2.94%
Cc1nc(C)n(CC2CCCN(CC(=O)Nc3nncs3)C2)n1 (configuration not stated) | -6.97%
Cc1ccc(NC2CCN(C(=O)c3c(C)noc3C)CC2)nn1 | -2.81%
O=C(COc1ccc(C(F)(F)F)cc1)NS(=O)(=O)c1cccnc1 | -3.77%
Cc1nnc2n1CCN(C(=O)c1cc(Cl)c[nH]1)C2 | -6.67%
CCCC1CCCN(Cc2csc(-c3cnn(C)c3)n2)CC1 (configuration not stated) | 14.1%
Cn1cc(-c2nc(CN3CCN(CCO)CC3)cs2)cn1 | 12.2%
CCC1CN(c2nnc(C)c(C)c2C#N)CCO1 (configuration not stated) | 8.71%
O=C(Cn1nc(-c2ccc(F)cc2)oc1=O)NCc1ccc(F)cc1 | 30.8%
N#Cc1ccc(C(=O)NCCCNc2ccc(C(F)(F)F)cn2)cc1 | 0.522%
CCn1cc(NC(=O)NCC(c2cccs2)N(C)C)cn1 (configuration not stated) | -4.7%
COCCOc1ncccc1C(=O)Nc1ccc(-n2cncn2)c(F)c1 | -6.17%
CCCNC(=O)CCC(=O)Nc1ccc(-n2cncn2)c(F)c1 | 36%

Compound | cytotoxicity at 70.5 h
O=C(Cn1cnc(NC(=O)CC2CCCC2)n1)NCc1ccccc1 | 1.33%
COCCNC(=O)Nc1ccc(-n2cncn2)c(F)c1 | 40.1%
CCNC(=O)Nc1ccc2c(ccn2CC(=O)N(CC)CC)c1 | -0.739%
O=C(CCCc1nc2ccccc2[nH]1)N1CCCC(n2cccn2)C1 (configuration not stated) | -1.12%
CN1CCCC1CNC(=O)CCCOCc1ccccc1 (configuration not stated) | -3.14%
Cc1cc(CN2CCN(C(=O)NC(C)Cn3ccnc3)CC2)no1 (configuration not stated) | -3.28%
Cc1nnc(N2CCOC(Cn3cccn3)C2)c(C#N)c1C (configuration not stated) | -8.57%
CC(C)c1nnc2n1CCN(C(=O)CN1CCc3sccc3C1)C2 | -4.56%
c1cnnc(N2CCCC2CNCc2cc[nH]n2)c1 (configuration not stated) | 11%
COCC(c1cccc(C(F)(F)F)c1)N(C)C(=O)c1cc(C)n[nH]1 (configuration not stated) | 18.4%
C=C1c2ccccc2C(=O)N1CCC(=O)N1CCNC(=O)C1 | 3.89%
CCOCC(O)CN1CCN(C(=O)Cc2ccc(C)nc2)CC1 (configuration not stated) | -0.471%
COCC(c1cccc(C(F)(F)F)c1)N(C)C(=O)c1ccncc1 (configuration not stated) | 30.8%
Cc1noc(CCCC(=O)NC(C)c2cccnc2)n1 (configuration not stated) | 0.606%
CC(C)OCC(=O)N1CCCN(Cc2ccc(C#N)cc2)CC1 | 5.66%
COCC(=O)NC(C)Cc1cccc(OC)c1 (configuration not stated) | 0.122%
COc1c(CNC(c2ccc(F)cc2)C(C)(C)C)c(C)nn1C (configuration not stated) | 3.66%
CC(C)(C)n1cc(C(=O)N2CCCN(Cc3cccs3)CC2)cn1 | -2.48%
CCN(Cc1ccc2c(c1)OCO2)C(=O)CCc1c(C)nc(C)[nH]c1=O | -4.97%
Cc1nc2ccccc2c(=O)n1CCC(=O)N1CCNC(=O)C1 | -2.46%
Cc1nc(-c2ccsc2)ccc1C(=O)NCCN1CCOCC1 | 0.983%
COC(=O)c1cc(C(=O)N2CCCCCC2)n(-c2ccccc2)n1 | 11.6%
O=C(Nc1cnn(CCN2CCOCC2)c1)c1ccccn1 | -4.34%
COC(=O)c1cc(C(=O)N2CCOCC2(C)C)n(-c2ccccc2)n1 | -0.593%

Compound | cytotoxicity at 70.5 h
Cc1nc(-c2ccsc2)ccc1C(=O)NCCC(=O)N1CCCC1 | -3.29%
CCNc1cc2c(nn1)CCN(C(=O)c1ccc(NC3CC3)nc1)C2 | 1.85%
CCNc1cc2c(nn1)CCN(C(=O)c1ccnc(N(C)C)c1)C2 | 0.651%
Cc1ccc(CC(=O)N2CCN(CC(O)c3ccccc3)CC2)cn1 (configuration not stated) | 1.06%
CNc1nc(CNC(=O)Nc2ccccc2SC)cs1 | 3.31%
Cc1ccc(SCC(=O)NS(=O)(=O)c2ccc3c(c2)OCCO3)cc1 | -1.91%
Cc1cnn(CCNCc2csc(-c3ccc(F)cc3)n2)c1 | 3.66%
Cc1cnn(CCNCc2nc(COc3ccc(F)cc3)no2)c1 | 6.22%
CCc1ccc(C(=O)N2CCN(CC(C)O)CC2)o1 (configuration not stated) | 2.04%
Cc1nc(C)n(CC2CCCN2CCc2cccs2)n1 (configuration not stated) | 39.6%
c1ccc(-c2cnc(CN3CCn4c(nnc4C4CC4)C3)o2)cc1 | -9.82%
Clc1ccccc1-c1nc(CNCCn2cccn2)cs1 | -6.01%
CC(C(=O)NCc1ccnc(N2CCCC2)c1)n1cncn1 (configuration not stated) | -1.47%
CC(=O)N1CCCN(C(=O)CCc2c(C)noc2C)CC1 | -16.4%
CCn1ccnc1CN1CCN(Cc2ccc(C#N)cc2)CC1 | 28.9%
CCOc1ccccc1OC1CCN(C(=O)c2cc[nH]n2)CC1 | -1.68%
CC(NC(=O)N(C)Cc1ccsc1)c1ccc2c(c1)OCO2 (configuration not stated) | -14.1%
Cc1cc(C)c(CNC(=O)NCc2ccc3c(c2)CCC3)c(=O)[nH]1 | -10.5%
Cc1ccc(C(=O)N2CCN(CC(O)c3ccc(F)cc3)CC2)s1 (configuration not stated) | -6.7%
CC(C)Oc1ncccc1CNC(=O)N1CCC1c1ccccc1 (configuration not stated) | 26.6%
COc1cc(CNCCc2nc(C)cs2)cc2c1OCCO2 | -0.752%
